According to ChEMBL document CHEMBL5108064, “Comparative Analysis of Small-Molecule LIMK1/2 Inhibitors: Chemical Synthesis, Biochemistry, and Cellular Activity” (J Med Chem, 2022):

Assay: Volume of distribution at steady state in Sprague-Dawley rat at 0.5 mg/kg, iv by LCMS/MS analysis
Type: ADME, organism-based
Settings: in vivo, read-out: Vdss

Cc1c[nH]c2ncnc(N3CCC(CN)(C(=O)Nc4cccc(OC(=O)N(C)C)c4)CC3)c12 [LX-7101]
Vd: 0.5 L/kg
